Laboratory results: patent US12594276B2, “Inhibitors of human immunodeficiency virus replication” (ViiV Healthcare UK (No.5) Limited, priority 2024, dated 2026)
Read-outs that look alike come from different tables or passages of the source.

Assays:
[1] = Compound cytotoxicity, XTT-based colorimetric assay; type: cell-based; settings: human
How it was run: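 Cells seeded as for the antiviral assay but left uninfected (MT2). Compound exposure continued to day 4. XTT reagent added and colour read. CC50 calculated.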

[2] = tested on: recombinant NL4-3 virus (nef section replaced with Renilla luciferase gene) in MT-2 cells; test: HIV cell culture assay (antiviral activity, luciferase readout); type: cell-based; settings: Renilla, NL43, MT-2 cells infected for 4-5 days with recombinant NL4-3 Renilla luciferase virus
How it was run: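 Antiviral EC50 derived from luciferase signal using the exponential median effect equation. Infection of MT-2 cells ran 4-5 days alongside serial dilutions of compound, with virus generated by proviral clone transfection of 293T cells.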

[3] = uninfected MT2 cells, day 4, XTT, read-out: CC50

Row | Compound | CC50 at 4 days [1, 3] [nM] | EC50 [2] [nM] | CC50 at 4 days [1] [nM]
1 | COCCNc1cc(C2CCC(F)(F)CC2)nc2nc([C@H](Cc3cc(F)cc(F)c3)NC(=O)Cn3nc(C(F)F)c4c3C(F)(F)[C@@H]3C[C@H]43)n(-c3ccc(Cl)c4c(NS(C)(=O)=O)nn(CCN5C[C@@H](F)[C@@H](F)C5)c34)c(=O)c12 (atropisomer, axis not shown; (P)) [Example 417, N-[(1S)-1-[(3P)-3-(4-chloro-1-{2-[(3R,4S)-3,4-difluoropyrrolidin-1-yl]ethyl}-3-methanesulfonamido-1H-indazol-7-yl)-7-(4,4-difluorocyclohexyl)-5-[(2-methoxyethyl)amino]-4-oxo-3H,4H-pyrido[2,3-d]pyrimidin-2-yl]-2-(3,5-difluorophenyl)ethyl]-2-[(2S,4R)-9-(difluoromethyl)-5,5-difluoro-7,8-diazatricyclo[4.3.0.0^2,^4]nona-1(6),8-dien-7-yl]acetamide] | > 20 | 0.007 | –
2 | COCCCn1nc(NS(C)(=O)=O)c2c(Cl)ccc(-n3c([C@H](Cc4cc(F)cc(F)c4)NC(=O)Cn4nc(C(F)F)c5c4C(F)(F)[C@@H]4C[C@H]54)nc4nc(C5CCC(F)(F)CC5)cc(C)c4c3=O)c21 (atropisomer, axis not shown; (P)) [Example 90, N-[(1S)-1-[(3P)-3-[4-chloro-3-methanesulfonamido-1-(3-methoxypropyl)-1H-indazol-7-yl]-7-(4,4-difluorocyclohexyl)-5-methyl-4-oxo-3H,4H-pyrido[2,3-d]pyrimidin-2-yl]-2-(3,5-difluorophenyl)ethyl]-2-[(2S,4R)-9-(difluoromethyl)-5,5-difluoro-7,8-diazatricyclo[4.3.0.0^2,^4]nona-1(6),8-dien-7-yl]acetamide] | > 50 | 0.018 | –
3 | COCCCn1nc(NS(C)(=O)=O)c2c(Cl)ccc(-n3c([C@H](Cc4cc(F)cc(F)c4)NC(=O)Cn4nc(C(F)F)c5c4C(F)(F)[C@@H]4C[C@H]54)nc4nc(C5CCC(F)(F)CC5)cc(NCCN5CCOC(C)(C)C5)c4c3=O)c21 (atropisomer, axis not shown; (P)) [Example 476, N-[(1S)-1-[(3P)-3-[4-chloro-3-methanesulfonamido-1-(3-methoxypropyl)-1H-indazol-7-yl]-7-(4,4-difluorocyclohexyl)-5-{[2-(2,2-dimethylmorpholin-4-yl)ethyl]amino}-4-oxo-3H,4H-pyrido[2,3-d]pyrimidin-2-yl]-2-(3,5-difluorophenyl)ethyl]-2-[(2S,4R)-9-(difluoromethyl)-5,5-difluoro-7,8-diazatricyclo[4.3.0.0^2,^4]nona-1(6),8-dien-7-yl]acetamide] | > 20 | 0.005 | –
4 | Cc1cc(C2(F)CCC(F)(F)CC2)nc2nc([C@H](Cc3cc(F)cc(F)c3)NC(=O)Cn3nc(C4CC4)c4c3C[C@@H]3C[C@H]43)n(-c3ccc(Cl)c4c(NS(C)(=O)=O)nn(CCN5C[C@@H](C)OC(C)(C)C5)c34)c(=O)c12 (atropisomer, axis not shown; (P)) [Example 584, N-[(1S)-1-[(3P)-3-(4-chloro-3-methanesulfonamido-1-{2-[(6R)-2,2,6-trimethylmorpholin-4-yl]ethyl}-1H-indazol-7-yl)-5-methyl-4-oxo-7-(1,4,4-trifluorocyclohexyl)-3H,4H-pyrido[2,3-d]pyrimidin-2-yl]-2-(3,5-difluorophenyl)ethyl]-2-[(2S,4S)-9-cyclopropyl-7,8-diazatricyclo[4.3.0.0^2,^4]nona-1(6),8-dien-7-yl]acetamide] | > 20 | 0.015 | –
5 | C[C@@H]1CN(CCn2nc(NS(C)(=O)=O)c3c(Cl)ccc(-n4c([C@H](Cc5cc(F)cc(F)c5)NC(=O)Cn5nc(C6CC6)c6c5C[C@@H]5C[C@H]65)nc5nc(C6CCC(F)(F)CC6)cc(C(F)F)c5c4=O)c32)C[C@H](C)O1 (atropisomer, axis not shown; (P)) [Example 240, N-[(1S)-1-[(3P)-3-(4-chloro-1-{2-[(2R,6S)-2,6-dimethylmorpholin-4-yl]ethyl}-3-methanesulfonamido-1H-indazol-7-yl)-7-(4,4-difluorocyclohexyl)-5-(difluoromethyl)-4-oxo-3H,4H-pyrido[2,3-d]pyrimidin-2-yl]-2-(3,5-difluorophenyl)ethyl]-2-[(2S,4S)-9-cyclopropyl-7,8-diazatricyclo[4.3.0.0^2,^4]nona-1(6),8-dien-7-yl]acetamide] | > 50 | 0.026 | –
6 | Cc1cc(C2CCC(F)(F)CC2)nc2nc([C@H](Cc3cc(F)cc(F)c3)NC(=O)Cn3nc(C4CC4)c4c3C[C@@H]3C[C@H]43)n(-c3ccc(Cl)c4c(NS(C)(=O)=O)nn(CCN5CC(F)(F)C(F)(F)C5)c34)c(=O)c12 (atropisomer, axis not shown; (P)) [Example 248, N-[(1S)-1-[(3P)-3-{4-chloro-3-methanesulfonamido-1-[2-(3,3,4,4-tetrafluoropyrrolidin-1-yl)ethyl]-1H-indazol-7-yl}-7-(4,4-difluorocyclohexyl)-5-methyl-4-oxo-3H,4H-pyrido[2,3-d]pyrimidin-2-yl]-2-(3,5-difluorophenyl)ethyl]-2-[(2S,4S)-9-cyclopropyl-7,8-diazatricyclo[4.3.0.0^2,^4]nona-1(6),8-dien-7-yl]acetamide] | > 50 | 0.018 | –
7 | CS(=O)(=O)Nc1nn(CCN2CC[C@@](F)(C(F)(F)F)C2)c2c(-n3c([C@H](Cc4cc(F)cc(F)c4)NC(=O)Cn4nc(C(F)F)c5c4C(F)(F)[C@@H]4C[C@H]54)nc4nc(C5CCC(F)(F)CC5)ccc4c3=O)ccc(Cl)c12 (atropisomer, axis not shown; (P)) [Example 42, N-[(1S)-1-[(3P)-3-(4-chloro-1-{2-[(3S)-3-fluoro-3-(trifluoromethyl)pyrrolidin-1-yl]ethyl}-3-methanesulfonamido-1H-indazol-7-yl)-7-(4,4-difluorocyclohexyl)-4-oxo-3H,4H-pyrido[2,3-d]pyrimidin-2-yl]-2-(3,5-difluorophenyl)ethyl]-2-[(2S,4R)-9-(difluoromethyl)-5,5-difluoro-7,8-diazatricyclo[4.3.0.0^2,^4]nona-1(6),8-dien-7-yl]acetamide] | > 50 | 0.021 | –
8 | CC(C)S(=O)(=O)N1CCN(CCn2nc(NS(C)(=O)=O)c3c(Cl)ccc(-n4c([C@H](Cc5cc(F)cc(F)c5)NC(=O)Cn5nc(C(F)F)c6c5C(F)(F)[C@@H]5C[C@H]65)nc5nc(C6CCC(F)(F)CC6)ccc5c4=O)c32)CC1 (atropisomer, axis not shown; (P)) [Example 195, N-[(1S)-1-[(3P)-3-(4-chloro-3-methanesulfonamido-1-{2-[4-(propane-2-sulfonyl)piperazin-1-yl]ethyl}-1H-indazol-7-yl)-7-(4,4-difluorocyclohexyl)-4-oxo-3H,4H-pyrido[2,3-d]pyrimidin-2-yl]-2-(3,5-difluorophenyl)ethyl]-2-[(2S,4R)-9-(difluoromethyl)-5,5-difluoro-7,8-diazatricyclo[4.3.0.0^2,^4]nona-1(6),8-dien-7-yl]acetamide] | > 50 | 0.037 | –
9 | CS(=O)(=O)Nc1nn(CCN2[C@@H]3CC[C@H]2COC3)c2c(-n3c([C@H](Cc4cc(F)cc(F)c4)NC(=O)Cn4nc(C5CC5)c5c4C[C@@H]4C[C@H]54)nc4nc(C5CCC(F)(F)CC5)ccc4c3=O)ccc(Cl)c12 (atropisomer, axis not shown; (P)) [Example 381, N-[(1S)-1-[(3P)-3-(4-chloro-3-methanesulfonamido-1-{2-[(1R,5S)-3-oxa-8-azabicyclo[3.2.1]octan-8-yl]ethyl}-1H-indazol-7-yl)-7-(4,4-difluorocyclohexyl)-4-oxo-3H,4H-pyrido[2,3-d]pyrimidin-2-yl]-2-(3,5-difluorophenyl)ethyl]-2-[(2S,4S)-9-cyclopropyl-7,8-diazatricyclo[4.3.0.0^2,^4]nona-1(6),8-dien-7-yl]acetamide] | – | 0.007 | > 20
10 | Cc1cc(C2(F)CCC(F)(F)CC2)nc2nc([C@H](Cc3cc(F)cc(F)c3)NC(=O)Cn3nc(C(F)F)c4c3C(F)(F)[C@@H]3C[C@H]43)n(-c3ccc(Cl)c4c(NS(C)(=O)=O)nn(CCN5CCOCC5(C)C)c34)c(=O)c12 (atropisomer, axis not shown; (P)) [Example 579, N-[(1S)-1-[(3P)-3-{4-chloro-1-[2-(3,3-dimethylmorpholin-4-yl)ethyl]-3-methanesulfonamido-1H-indazol-7-yl}-5-methyl-4-oxo-7-(1,4,4-trifluorocyclohexyl)-3H,4H-pyrido[2,3-d]pyrimidin-2-yl]-2-(3,5-difluorophenyl)ethyl]-2-[(2S,4R)-9-(difluoromethyl)-5,5-difluoro-7,8-diazatricyclo[4.3.0.0^2,^4]nona-1(6),8-dien-7-yl]acetamide] | > 20 | 0.011 | –
11 | Cc1cc(C2CCC(F)(F)CC2)nc2nc([C@H](Cc3cc(F)cc(F)c3)NC(=O)Cn3nc(C(F)(F)F)c4c3C(F)(F)[C@@H]3C[C@H]43)n(-c3ccc(Cl)c4c(NS(C)(=O)=O)nn(CCCN5CCOCC5)c34)c(=O)c12 (atropisomer, axis not shown; (P)) [Example 121, N-[(1S)-1-[(3P)-3-{4-chloro-3-methanesulfonamido-1-[3-(morpholin-4-yl)propyl]-1H-indazol-7-yl}-7-(4,4-difluorocyclohexyl)-5-methyl-4-oxo-3H,4H-pyrido[2,3-d]pyrimidin-2-yl]-2-(3,5-difluorophenyl)ethyl]-2-[(2S,4R)-5,5-difluoro-9-(trifluoromethyl)-7,8-diazatricyclo[4.3.0.0^2,^4]nona-1(6),8-dien-7-yl]acetamide] | > 50 | 0.027 | –
